Experiments:
[1] = system: CYPSE (Cyperus serotinus); assay: Flooded paddy, preemergence weed control; assay type: in vivo, Rottb.; conditions: rated 3-4 weeks after treatment, 0-9 rating scale
How it was run: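 Herbicidal effect was scored visually on a 0–9 scale against an untreated control 3–4 weeks after treatment. Compounds were applied preemergence as 50/50 v/v aqueous/acetone mixtures into flood water (1.5–3 cm deep over silt loam), at roughly 0.0080 to 0.1250 kg/ha active ingredient.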

[2] = system: IPOHE (Ipomoea hederacea); assay: Postemergence herbicidal evaluation; assay type: in vivo, (L.) Jacq.
How it was run: (§1)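 Visual 0–9 injury scores versus control plants, covering stand, vigour, malformation, size, chlorosis and general appearance, taken four to five weeks post-spray and averaged over replicate tests. Plants were sprayed at roughly two weeks old and held on greenhouse benches.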

ORYSAT (Rice, Tebonnet) [3] = assay: Preemergence herbicidal evaluation; assay type: in vivo, Oryza sativa, (L.) Tebonnet; conditions: rated 4-5 weeks after treatment
[4] = system: ECHORC (Echinochloa oryzoides); assay: Flooded paddy, preemergence weed control; assay type: in vivo, Echinochloa oryzoides (Ard.) Fritsch.; conditions: rated 3-4 weeks after treatment, 0-9 rating scale
How it was run: (§2)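 Plants were established from seed or propagating organs in flooded silt loam, with the water surface held 1.5 to 3 cm above the soil for the entire experiment. Injury was assessed visually against a control and given a 0-9 score.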

[5] = system: CASOB (Cassia obtusifolia); assay: Postemergence herbicidal evaluation; assay type: in vivo, L.
How it was run: as §1

[6] = system: AMBEL (Ambrosia artemisifolia); assay: Postemergence herbicidal evaluation; assay type: in vivo, L.
How it was run: as §1

[7] = system: CHEAL (Chenopodium album); assay: Postemergence herbicidal evaluation; assay type: in vivo, L.
How it was run: as §1

[8] = system: CASOB (Cassia obtusifolia); assay: Preemergence herbicidal evaluation; assay type: in vivo, L.; conditions: rated 4-5 weeks after treatment
How it was run: (§3)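 Steps: mix seeds with potting soil; plant on ~1 inch soil per cup; spray compound in aqueous acetone; hold on greenhouse benches with routine watering; rate 0–9 visually against control at 4–5 weeks.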

[9] = system: AMBEL (Ambrosia artemisifolia); assay: Preemergence herbicidal evaluation; assay type: in vivo, L.; conditions: rated 4-5 weeks after treatment
How it was run: as §3

[10] = system: CHEAL (Chenopodium album); assay: Preemergence herbicidal evaluation; assay type: in vivo, L.; conditions: rated 4-5 weeks after treatment
How it was run: as §3

[11] = system: ABUTH (Abutilon theophrasti); assay: Postemergence herbicidal evaluation; assay type: in vivo, Medic.
How it was run: as §1

[12] = system: SAGPY (Sagittaria pygmaea); assay: Flooded paddy, preemergence weed control; assay type: in vivo, L.; conditions: rated 3-4 weeks after treatment, 0-9 rating scale
How it was run: as §2

ORYSAT (Rice, Tebonnet) [13] = assay: Flooded paddy, post-transplant rice tolerance; assay type: in vivo, Oryza sativa, (L.) Tebonnet; conditions: flooded paddy, post-transplant rice, rated 3-4 weeks after treatment, 0-9 rating scale
How it was run: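 Steps: transplant two ten-day-old seedlings into silt loam; flood to 1.5-3 cm above soil; apply herbicide post-transplant; maintain water on greenhouse benches; rate stand, vigor, malformation, size and chlorosis on a 0-9 visual scale versus control.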

[14] = system: ECHCG (Echinochloa crus-galli); assay: Postemergence herbicidal evaluation; assay type: in vivo, (L.) Beau
How it was run: as §1

[15] = system: TRZAWR (Wheat, Winter, cv Riband); assay: Postemergence herbicidal evaluation; assay type: in vivo, Triticum aestivum
How it was run: as §1

[16] = system: ABUTH (Abutilon theophrasti); assay: Preemergence herbicidal evaluation; assay type: in vivo, Medic.; conditions: rated 4-5 weeks after treatment
ZEAMX (Corn, Field) = assay: Postemergence herbicidal evaluation; assay type: in vivo, Zea mays, L.
How it was run: as §1

ORYSAT (Rice, Tebonnet) [17] = assay: Postemergence herbicidal evaluation; assay type: in vivo, Oryza sativa, (L.) Tebonnet
How it was run: as §1

[18] = system: TRZAWR (Wheat, Winter, cv Riband); assay: Preemergence herbicidal evaluation; assay type: in vivo, Triticum aestivum; conditions: rated 4-5 weeks after treatment
How it was run: as §3

SMILES: Cc1cccnc1-c1nsc2cc(F)c(N3C(=O)C4=C(CCCC4)C3=O)cc12 [Compound 46, N-[6-fluoro-3-(3-methyl-2-pyridyl)-1,2-benzisothiazol-5-yl]-1-cyclohexene-1,2-dicarboximide]
- herbicidal rating, CYPSE ([1]; rate 0.1250 kg/ha): 0.0
- Postemergence herbicidal rating, IPOHE ([2]; rate 0.0320 kg/ha): 9.0
- Postemergence herbicidal rating, IPOHE ([2]; rate 0.0620 kg/ha): 9.0
- Postemergence herbicidal rating, IPOHE ([2]; rate 0.1250 kg/ha): 9.0
- Preemergence herbicidal rating ORYSAT (ORYSAT (Rice, Tebonnet) [3]; Rate 0.0620 kg/ha): 1.0
- Preemergence herbicidal rating ORYSAT (ORYSAT (Rice, Tebonnet) [3]; Rate 0.1250 kg/ha): 0.0
- Preemergence herbicidal rating ORYSAT (ORYSAT (Rice, Tebonnet) [3]; Rate 0.2500 kg/ha): 4.0
- herbicidal rating, ECHORC ([4]; rate 0.0320 kg/ha): 5.0
- herbicidal rating, ECHORC ([4]; rate 0.1250 kg/ha): 7.0
- Postemergence herbicidal rating, CASOB ([5]; rate 0.0320 kg/ha): 7.0
- Postemergence herbicidal rating, CASOB ([5]; rate 0.0620 kg/ha): 9.0
- Postemergence herbicidal rating, CASOB ([5]; rate 0.1250 kg/ha): 9.0
- Postemergence herbicidal rating, AMBEL ([6]; rate 0.0320 kg/ha): 7.0
- Postemergence herbicidal rating, AMBEL ([6]; rate 0.0620 kg/ha): 9.0
- Postemergence herbicidal rating, AMBEL ([6]; rate 0.1250 kg/ha): 9.0
- Postemergence herbicidal rating, CHEAL ([7]; rate 0.0320 kg/ha): 6.0
- Postemergence herbicidal rating, CHEAL ([7]; rate 0.0620 kg/ha): 9.0
- Postemergence herbicidal rating, CHEAL ([7]; rate 0.1250 kg/ha): 9.0
- Preemergence herbicidal rating CASOB ([8]; Rate 0.0620 kg/ha): 1.0
- Preemergence herbicidal rating CASOB ([8]; Rate 0.1250 kg/ha): 1.0
- Preemergence herbicidal rating CASOB ([8]; Rate 0.2500 kg/ha): 3.0
- Preemergence herbicidal rating AMBEL ([9]; Rate 0.0620 kg/ha): 1.0
- Preemergence herbicidal rating AMBEL ([9]; Rate 0.1250 kg/ha): 6.0
- Preemergence herbicidal rating AMBEL ([9]; Rate 0.2500 kg/ha): 9.0
- Preemergence herbicidal rating CHEAL ([10]; Rate 0.0620 kg/ha): 7.0
- Preemergence herbicidal rating CHEAL ([10]; Rate 0.1250 kg/ha): 9.0
- Preemergence herbicidal rating CHEAL ([10]; Rate 0.2500 kg/ha): 9.0
- Postemergence herbicidal rating, ABUTH ([11]; rate 0.0320 kg/ha): 9.0
- Postemergence herbicidal rating, ABUTH ([11]; rate 0.0620 kg/ha): 9.0
- Postemergence herbicidal rating, ABUTH ([11]; rate 0.1250 kg/ha): 9.0
- herbicidal rating, SAGPY ([12]; rate 0.0320 kg/ha): 0.0
- herbicidal rating, SAGPY ([12]; rate 0.1250 kg/ha): 2.0
- herbicidal rating, ORYSAT (rice tolerance) (ORYSAT (Rice, Tebonnet) [13]; rate 0.0320 kg/ha): 2.0
- herbicidal rating, ORYSAT (rice tolerance) (ORYSAT (Rice, Tebonnet) [13]; rate 0.1250 kg/ha): 3.0
- Postemergence herbicidal rating, ECHCG ([14]; rate 0.0320 kg/ha): 2.0
- Postemergence herbicidal rating, ECHCG ([14]; rate 0.0620 kg/ha): 2.0
- Postemergence herbicidal rating, ECHCG ([14]; rate 0.1250 kg/ha): 4.0
- Postemergence herbicidal rating, TRZAWR ([15]; rate 0.0320 kg/ha): 4.0
- Postemergence herbicidal rating, TRZAWR ([15]; rate 0.0620 kg/ha): 4.5
- Postemergence herbicidal rating, TRZAWR ([15]; rate 0.1250 kg/ha): 5.0
- Preemergence herbicidal rating ABUTH ([16]; Rate 0.0620 kg/ha): 5.0
- Preemergence herbicidal rating ABUTH ([16]; Rate 0.1250 kg/ha): 4.0
- Preemergence herbicidal rating ABUTH ([16]; Rate 0.2500 kg/ha): 9.0
- Postemergence herbicidal rating, ZEAMX (ZEAMX (Corn, Field); rate 0.0320 kg/ha): 4.5
- Postemergence herbicidal rating, ZEAMX (ZEAMX (Corn, Field); rate 0.0620 kg/ha): 4.5
- Postemergence herbicidal rating, ZEAMX (ZEAMX (Corn, Field); rate 0.1250 kg/ha): 5.5
- Postemergence herbicidal rating, ORYSAT (ORYSAT (Rice, Tebonnet) [17]; rate 0.0320 kg/ha): 4.0
- Postemergence herbicidal rating, ORYSAT (ORYSAT (Rice, Tebonnet) [17]; rate 0.0620 kg/ha): 3.5
- Postemergence herbicidal rating, ORYSAT (ORYSAT (Rice, Tebonnet) [17]; rate 0.1250 kg/ha): 4.5
- Preemergence herbicidal rating TRZAWR ([18]; Rate 0.0620 kg/ha): 1.0
- Preemergence herbicidal rating TRZAWR ([18]; Rate 0.1250 kg/ha): 0.0
- Preemergence herbicidal rating TRZAWR ([18]; Rate 0.2500 kg/ha): 2.0

SMILES: C[C@@H]1OC(c2nsc3ccc(-n4c(=O)cc(C(F)(F)F)n(C)c4=O)cc23)O[C@@H]1C (stereo partly drawn) [Compound 47, 3-[3-[(4R,5S)-4,5-dimethyl-1,3-dioxolan-2-yl]-1,2-benzisothiazol-5-yl]-1-methyl-6-(trifluoromethyl)uracil]
- herbicidal rating, CYPSE ([1]; rate 0.0320 kg/ha): 9.0
- herbicidal rating, CYPSE ([1]; rate 0.1250 kg/ha): 9.0
- Postemergence herbicidal rating, IPOHE ([2]; rate 0.0320 kg/ha): 9.0
- Postemergence herbicidal rating, IPOHE ([2]; rate 0.0620 kg/ha): 9.0
- Preemergence herbicidal rating ORYSAT (ORYSAT (Rice, Tebonnet) [3]; Rate 0.0620 kg/ha): 7.5
- Preemergence herbicidal rating ORYSAT (ORYSAT (Rice, Tebonnet) [3]; Rate 0.1250 kg/ha): 7.5
- Preemergence herbicidal rating ORYSAT (ORYSAT (Rice, Tebonnet) [3]; Rate 0.2500 kg/ha): 9.0
- herbicidal rating, ECHORC ([4]; rate 0.0080 kg/ha): 5.0
- herbicidal rating, ECHORC ([4]; rate 0.0320 kg/ha): 8.5
- herbicidal rating, ECHORC ([4]; rate 0.1250 kg/ha): 9.0
- Postemergence herbicidal rating, CASOB ([5]; rate 0.0320 kg/ha): 6.0
- Postemergence herbicidal rating, CASOB ([5]; rate 0.0620 kg/ha): 9.0
- Postemergence herbicidal rating, AMBEL ([6]; rate 0.0320 kg/ha): 9.0
- Postemergence herbicidal rating, AMBEL ([6]; rate 0.0620 kg/ha): 9.0
- Postemergence herbicidal rating, CHEAL ([7]; rate 0.0320 kg/ha): 9.0
- Postemergence herbicidal rating, CHEAL ([7]; rate 0.0620 kg/ha): 9.0
- Preemergence herbicidal rating CASOB ([8]; Rate 0.0620 kg/ha): 4.5
- Preemergence herbicidal rating CASOB ([8]; Rate 0.1250 kg/ha): 7.5
- Preemergence herbicidal rating CASOB ([8]; Rate 0.2500 kg/ha): 9.0
- Preemergence herbicidal rating AMBEL ([9]; Rate 0.0620 kg/ha): 9.0
- Preemergence herbicidal rating AMBEL ([9]; Rate 0.1250 kg/ha): 9.0
- Preemergence herbicidal rating AMBEL ([9]; Rate 0.2500 kg/ha): 9.0
- Preemergence herbicidal rating CHEAL ([10]; Rate 0.0620 kg/ha): 9.0
- Preemergence herbicidal rating CHEAL ([10]; Rate 0.1250 kg/ha): 9.0
- Preemergence herbicidal rating CHEAL ([10]; Rate 0.2500 kg/ha): 9.0
- Postemergence herbicidal rating, ABUTH ([11]; rate 0.0320 kg/ha): 9.0
- Postemergence herbicidal rating, ABUTH ([11]; rate 0.0620 kg/ha): 9.0
- herbicidal rating, SAGPY ([12]; rate 0.0080 kg/ha): 0.0
- herbicidal rating, SAGPY ([12]; rate 0.0320 kg/ha): 7.5
- herbicidal rating, SAGPY ([12]; rate 0.1250 kg/ha): 9.0
- herbicidal rating, ORYSAT (rice tolerance) (ORYSAT (Rice, Tebonnet) [13]; rate 0.0080 kg/ha): 3.0
- herbicidal rating, ORYSAT (rice tolerance) (ORYSAT (Rice, Tebonnet) [13]; rate 0.0320 kg/ha): 7.5
- herbicidal rating, ORYSAT (rice tolerance) (ORYSAT (Rice, Tebonnet) [13]; rate 0.1250 kg/ha): 9.0
- Postemergence herbicidal rating, ECHCG ([14]; rate 0.0320 kg/ha): 0.0
- Postemergence herbicidal rating, ECHCG ([14]; rate 0.0620 kg/ha): 3.0
- Postemergence herbicidal rating, TRZAWR ([15]; rate 0.0320 kg/ha): 5.0
- Postemergence herbicidal rating, TRZAWR ([15]; rate 0.0620 kg/ha): 6.0
- Preemergence herbicidal rating ABUTH ([16]; Rate 0.0620 kg/ha): 9.0
- Preemergence herbicidal rating ABUTH ([16]; Rate 0.1250 kg/ha): 9.0
- Preemergence herbicidal rating ABUTH ([16]; Rate 0.2500 kg/ha): 9.0
- Postemergence herbicidal rating, ZEAMX (ZEAMX (Corn, Field); rate 0.0320 kg/ha): 3.5
- Postemergence herbicidal rating, ZEAMX (ZEAMX (Corn, Field); rate 0.0620 kg/ha): 4.0
- Postemergence herbicidal rating, ORYSAT (ORYSAT (Rice, Tebonnet) [17]; rate 0.0320 kg/ha): 4.0
- Postemergence herbicidal rating, ORYSAT (ORYSAT (Rice, Tebonnet) [17]; rate 0.0620 kg/ha): 6.5
- Preemergence herbicidal rating TRZAWR ([18]; Rate 0.0620 kg/ha): 6.0
- Preemergence herbicidal rating TRZAWR ([18]; Rate 0.1250 kg/ha): 8.0
- Preemergence herbicidal rating TRZAWR ([18]; Rate 0.2500 kg/ha): 8.0
